Experimental data taken from patent publication US12473289B2, “Heterocyclic compounds as delta-5 desaturase inhibitors and methods of use” (Amgen Inc., priority 2019, dated 2025).

target: Delta-5-Desaturase (D5D) (Homo sapiens (Human), UniProt O60427); experiment: In vitro measurement of Delta-5-Desaturase inhibitory activity using DGLA-CoA and Arachidonyl-CoA mass spectrometric assays; type: biochemical; conditions: membrane preparations of D5D-overexpressing HEK293 6E cells; averaged over at least two independent runs
In short: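 Membranes from D5D-overexpressing HEK293 6E cells (10 μg/mL final) in Tris pH 7.5 with MgCl2, octyl glucoside and TCEP were mixed 1:1 with substrate solution (0.01 mM DGLA, 0.25 mM NADH, 0.25 mM ATP, 0.05 mM CoA) for 1 h at ambient temperature. RapidFire SPE-MS/MS MRM; IC50 by 4-parameter fit, ≥2 runs.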

Sequence of Delta-5-Desaturase (D5D) (O60427 whole entry, species assumed): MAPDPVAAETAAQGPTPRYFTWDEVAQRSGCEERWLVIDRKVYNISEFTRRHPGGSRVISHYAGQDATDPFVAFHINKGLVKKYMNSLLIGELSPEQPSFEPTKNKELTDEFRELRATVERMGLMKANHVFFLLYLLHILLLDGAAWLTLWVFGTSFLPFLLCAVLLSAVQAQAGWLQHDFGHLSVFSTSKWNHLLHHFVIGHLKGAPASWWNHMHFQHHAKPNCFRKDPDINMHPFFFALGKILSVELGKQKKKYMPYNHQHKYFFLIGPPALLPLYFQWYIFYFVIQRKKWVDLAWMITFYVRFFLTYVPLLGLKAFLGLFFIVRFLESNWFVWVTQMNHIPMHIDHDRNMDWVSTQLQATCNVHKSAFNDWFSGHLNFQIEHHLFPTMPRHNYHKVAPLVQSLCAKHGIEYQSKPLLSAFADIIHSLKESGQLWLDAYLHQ

| IC50 [µM] | SMILES |
| --- | --- |
| 0.0905 | O=c1ccn2c(=O)c(-c3cnn(CC(F)(F)C(F)(F)F)c3)c(C(F)(F)F)nc2n1CCl [Example 65, 1-(Chloromethyl)-7-[1-(2,2,3,3,3-pentafluoropropyl)-1H-pyrazol-4-yl]-8-(trifluoromethyl)-1H,2H,6H-pyrimido[1,2-a][1,3]diazine-2,6-dione] |
| 5.38 | Cc1ccn2c(=O)c(-c3noc(CCC(F)(F)F)n3)c(C(F)(F)F)nc2c1 [Example 50, 8-Methyl-2-(trifluoromethyl)-3-[5-(3,3,3-trifluoropropyl)-1,2,4-oxadiazol-3-yl]-4H-pyrido[1,2-a]pyrimidin-4-one] |
| > 67 | O=c1c(-c2cnc(OCC(F)(F)F)nc2)c(C(F)(F)F)nc2n1CCOC2 [Example 39-39, 3-[2-(2,2,2-trifluoroethoxy)pyrimidin-5-yl]-2-(trifluoromethyl)-4H,6H,7H,9H-pyrimido[2,1-c][1,4]oxazin-4-one] |
| 0.119 | O=c1c(-c2cnn(CC(F)(F)C(F)(F)F)c2)c(C(F)(F)F)nc2cc(OCCl)cnn12 [Example 48, 8-(Chloromethoxy)-3-[1-(2,2,3,3,3-pentafluoropropyl)-1H-pyrazol-4-yl]-2-(trifluoromethyl)-4H-pyrimido[1,2-b]pyridazin-4-one] |
| 0.0105 | COc1ccn2c(=O)c(-c3cnn(C[C@@H]4CC4(F)F)c3)c(C(F)(F)F)nc2c1 [Example 70, 3-(1-{[(1S)-2,2-Difluorocyclopropyl]methyl}-1H-pyrazol-4-yl)-8-methoxy-2-(trifluoromethyl)-4H-pyrido[1,2-a]pyrimidin-4-one] |
| 0.0447 | COc1ccn2c(=O)c(-c3cn(CC(F)(F)C(F)(F)F)nn3)c(C(F)(F)F)nc2c1 [Example 53, 8-Methoxy-3-[1-(2,2,3,3,3-pentafluoropropyl)-1H-1,2,3-triazol-4-yl]-2-(trifluoromethyl)-4H-pyrido[1,2-a]pyrimidin-4-one] |
| 0.0215 | COc1ccn2c(=O)c(-c3cnc(OCC(F)(F)F)s3)c(C(F)(F)F)nc2c1 [Example 56, 8-Methoxy-3-[2-(2,2,2-trifluoroethoxy)-1,3-thiazol-5-yl]-2-(trifluoromethyl)-4H-pyrido[1,2-a]pyrimidin-4-one] |
| > 67 | COc1ccn2c(=O)c(-c3cccc(OCC(F)(F)F)c3)c(C(F)(F)F)nc2c1 [Example 62, 8-Methoxy-3-[3-(2,2,2-trifluoroethoxy)phenyl]-2-(trifluoromethyl)-4H-pyrido[1,2-a]pyrimidin-4-one] |
| > 67 | COc1ccc2nc(C(F)(F)F)c(-c3cnc(OCC(F)(F)F)nc3)c(=O)n2n1 [Example 39-15, 7-methoxy-3-[2-(2,2,2-trifluoroethoxy)pyrimidin-5-yl]-2-(trifluoromethyl)-4H-pyrimido[1,2-b]pyridazin-4-one] |
| 0.115 | COc1ccc2nc(C(F)(F)F)c(-c3cnn(CC(F)(F)C(F)(F)F)c3)c(=O)n2c1 [Example 39-6, 7-methoxy-3-[1-(2,2,3,3,3-pentafluoropropyl)-1H-pyrazol-4-yl]-2-(trifluoromethyl)-4H-pyrido[1,2-a]pyrimidin-4-one] |
| 0.0134 | O=c1c(-c2cnn(CC(F)(F)C(F)(F)F)c2)c(C(F)(F)F)nc2cnc(Cl)cn12 [Example 39-35, 7-chloro-3-[1-(2,2,3,3,3-pentafluoropropyl)-1H-pyrazol-4-yl]-2-(trifluoromethyl)-4H-pyrazino[1,2-a]pyrimidin-4-one] |
| 0.369 | Cc1cnn2c(=O)c(-c3cnn(CC4CC4(F)F)c3)c(C(F)(F)F)nc2c1 (stereo not shown) [Example 39-53, 3-{1-[(2,2-difluorocyclopropyl)methyl]-1H-pyrazol-4-yl}-8-methyl-2-(trifluoromethyl)-4H-pyrimido[1,2-b]pyridazin-4-one] |

Second part, the compound before the results:

| SMILES | IC50 [µM] |
| --- | --- |
| [2H]C([2H])([2H])Oc1ccn2c(=O)c(-c3ccc(OCC(F)F)cc3)c(C(F)(F)F)nc2c1 [Example 1-52, 3-(4-(2,2-difluoroethoxy)phenyl)-8-(methyloxy-d3)-2-(trifluoromethyl)-4H-pyrido[1,2-a]pyrimidin-4-one] | 0.0056 |
| COc1ccn2c(=O)c(-c3ccc(OCCF)cc3)c(C(F)(F)F)nc2c1 [Example 1-11, 3-(4-(2-fluoroethoxy)phenyl)-8-methoxy-2-(trifluoromethyl)-4H-pyrido[1,2-a]pyrimidin-4-one] | 0.0261 |
| O=c1c(-c2ccc(OCC(F)(F)F)cn2)c(C(F)(F)F)nc2ccccn12 [Example 7-2, 3-(5-(2,2,2-trifluoroethoxy)-2-pyridinyl)-2-(trifluoromethyl)-4H-pyrido[1,2-a]pyrimidin-4-one] | 5.23 |
| CCc1ccn2c(=O)c(-c3ccc(OCC(F)(F)F)cc3)c(C(F)(F)F)nc2c1 [Example 2-1, 8-Ethyl-3-(4-(2,2,2-trifluoroethoxy)phenyl)-2-(trifluoromethyl)-4H-pyrido[1,2-a]pyrimidin-4-one] | 0.0226 |
| COc1ccn2c(=O)c(-c3ccc(OC(F)F)cc3)c(C(F)(F)F)nc2c1 [Example 1-54, 3-(4-(difluoromethoxy)phenyl)-8-methoxy-2-(trifluoromethyl)-4H-pyrido[1,2-a]pyrimidin-4-one] | 0.0066 |
| COc1ccn2c(=O)c(-c3cnc(OCC(F)(F)F)c(F)c3)c(C(F)(F)F)nc2c1 [Example 7-3, 3-(5-fluoro-6-(2,2,2-trifluoroethoxy)-3-pyridinyl)-8-methoxy-2-(trifluoromethyl)-4H-pyrido[1,2-a]pyrimidin-4-one] | 4.05 |
| O=c1ccn2c(=O)c(-c3ccc(OCC(F)(F)F)c(F)c3)c(C(F)(F)F)nc2[nH]1 [Example 10-2, 7-(3-fluoro-4-(2,2,2-trifluoroethoxy)phenyl)-8-(trifluoromethyl)-2H-pyrimido[1,2-a]pyrimidine-2,6(1H)-dione] | 0.328 |
| CC1(c2ccn3c(=O)c(-c4ccc(OCC(F)(F)F)cc4)c(C(F)(F)F)nc3c2)CCO1 (stereo not shown) [Example 27, 8-(2-Methyl-2-oxetanyl)-3-(4-(2,2,2-trifluoroethoxy)phenyl)-2-(trifluoromethyl)-4H-pyrido[1,2-a]pyrimidin-4-one] | 0.553 |
| O=C(O)c1ccn2c(=O)c(-c3cnn(CC(F)(F)C(F)(F)F)c3)c(C(F)(F)F)nc2c1 [Example 1-21, 4-oxo-3-(1-(2,2,3,3,3-pentafluoropropyl)-1H-pyrazol-4-yl)-2-(trifluoromethyl)-4H-pyrido[1,2-a]pyrimidine-8-carboxylic acid] | 3.39 |
| COc1ccn2c(=O)c(-c3cnc(-c4ccccc4)o3)c(C(F)(F)F)nc2c1 [Example 1-6, 8-methoxy-3-(2-phenyl-1,3-oxazol-5-yl)-2-(trifluoromethyl)-4H-pyrido[1,2-a]pyrimidin-4-one] | 0.11 |
| N#Cc1ccn2c(=O)c(-c3ccc(OCC(F)(F)F)cc3)c(C(F)(F)F)nc2c1 [Example 2-9, 4-oxo-3-(4-(2,2,2-trifluoroethoxy)phenyl)-2-(trifluoromethyl)-4H-pyrido[1,2-a]pyrimidine-8-carbonitrile] | 0.44 |
| O=c1c(-c2cnn(CC(F)(F)C(F)(F)F)c2)c(C(F)(F)F)nc2ccccn12 [Example 39-5, 3-[1-(2,2,3,3,3-pentafluoropropyl)-1H-pyrazol-4-yl]-2-(trifluoromethyl)-4H-pyrido[1,2-a]pyrimidin-4-one] | 0.0089 |
| CN(C)Cc1ccn2c(=O)c(-c3cnn(CC(F)(F)C(F)(F)F)c3)c(C(F)(F)F)nc2c1 [Example 26, 8-((Dimethylamino)methyl)-3-(1-(2,2,3,3,3-pentafluoropropyl)-1H-pyrazol-4-yl)-2-(trifluoromethyl)-4H-pyrido[1,2-a]pyrimidin-4-one] | 0.128 |
